Publication PMC10777851, “SMT-738: a novel small-molecule inhibitor of bacterial lipoprotein transport targeting Enterobacteriaceae” (Antimicrobial Agents and Chemotherapy, 2023)
Values after ≈ are worked out from the molar mass of the structure shown. Values joined by “and” are separate entries in the source; they are usually repeats but may differ in a detail not shown here. Identical values can stand only once.

Experiments:
[1] = test system: Renal proximal tubule epithelial cells; assay: Nephrotoxicity assay (cell health markers); format: cell-based; conditions: top concentration of 500 µM (= 196.85 µg/mL)
Method: The standard nephrotoxicity assay was performed by Cyprotex, UK. Renal proximal tubule epithelial cells were exposed to a range of concentrations of compound, loaded with relevant dye/antibody for each cell health marker and scanned using a fluorescent cellular imager (ArrayScan, Thermo Scientific Cellomics). Cell health parameters that were analyzed: cell count, nuclear size, DNA structure, mitochondrial mass, mitochondrial membrane potential, phospholipidosis, glutathione content, and cellular ATP.

[2] = Pharmacokinetics after IV bolus in mice; format: in vivo, male CD-1 mice; conditions: 20-mg/kg bolus IV
Method: Male CD-1 mice (from Charles River, Margate UK) were administered 20 mg/kg of SMT-738 via IV bolus route. At selected timepoints, blood, kidney tissue, lung tissue, and urine were collected and progressed for further analysis. The PK parameters included initial concentration (C 0) via extrapolation, clearance (CL), volume of distribution (V ss), and AUC0-t in plasma were determined using non-compartmental analysis. Tissue partitioning values were determined with ratio of AUC0-t,kidney/AUC0-t,plasma for kidney (K p,kidney) and ratio of AUC0-t,lung/AUC0-t,plasma for lung (K p,lung). The mean recovery (%) of SMT-738 unchanged in urine was determined by amount in urine compared to the intravenously administered dose. The study was conducted by Evotec Ltd (UK).

[3] = Protein binding, rat; format: in vitro ADME
[4] = test system: HepG2 cells; assay: Seahorse mitochondrial functional assay; format: cell-based; conditions: top concentration of 500 µM (= 196.85 µg/mL)
Method: The Seahorse mitochondrial functional assay was performed by Cyprotex, UK. HepG2 cells were dosed with test compound, and in real time, the extracellular oxygen levels and pH were measured using the Xfe96 flux analyzer (Seahorse Biosciences). Simultaneously, oxygen consumption rate and extracellular acidification rate were measured to determine its effect on oxidative phosphorylation.

[5] = Protein binding, mouse; format: in vitro ADME
[6] = test system: members of the Enterobacterales order; assay: MIC, panel of 100 bacterial species: Enterobacterales; format: cell-based; conditions: apart from the named exceptions
Method: (§1) MIC tests were performed by broth microdilution in-line with CLSI susceptibility testing standards ([20], [21]) either in-house or at IHMA (Europe and USA) or JMI Laboratories using cation-adjusted Mueller Hinton Broth.

[7] = test system: Proteus sp.; assay: MIC, panel of 100 bacterial species; format: cell-based
Method: as §1

[8] = test system: Edwardsiella tarda; assay: MIC, panel of 100 bacterial species; format: cell-based
Method: as §1

[9] = test system: Haemophilus influenzae; assay: MIC, panel of 100 bacterial species; format: cell-based
Method: as §1

[10] = test system: Hafnia alvei; assay: MIC, panel of 100 bacterial species; format: cell-based
Method: as §1

[11] = test system: Morganella morganii; assay: MIC, panel of 100 bacterial species; format: cell-based
Method: as §1

[12] = test system: Haemophilus parainfluenzae; assay: MIC, panel of 100 bacterial species; format: cell-based
Method: as §1

[13] = test system: K. pneumoniae ATCC 43816; assay: Murine lung infection model (neutropenic); format: in vivo, male CD-1 mice; conditions: 20 mg/kg per dose QD or BID, 60-min IV infusion, 24 h post-infection
Method: Male JVC-cannulated CD-1 mice were rendered neutropenic using cyclophosphamide on days −4 and −1 (150 and 100 mg/kg, respectively). Mice were infected intranasally with K. pneumoniae ATCC 43816, and SMT-738 treatment was initiated at QD, 2 h post-infection; BID, 2 and 5 h post-infection. The pre-treatment control animals were euthanized at 2 h post-infection. All other study animals were euthanized at 24 h post-infection. Lungs were dissected and homogenized and quantitatively cultured, serially diluted, and plated on CLED agar, and CFU were quantified following overnight incubation at 30°C. A Kruskal-Wallis statistical test was performed.

[14] = test system: two respiratory isolates (carrying NDM-5 and TEM-OSBL) from Russia in 2019; assay: MIC against two cefiderocol-resistant respiratory isolates; format: cell-based
Method: as §1

[15] = Protein binding, human; format: in vitro ADME
[16] = test system: UPEC (E. coli NCTC 13441) LolC and LolE mutants; assay: MIC fold change of resistant LolC/LolE mutants, UPEC; format: cell-based, Escherichia coli
Method: as §1
The FoR of bacterial strains to test compounds was determined by plating aliquots of overnight cultures onto MH-agar plates containing dilutions of the test compound at various multiples of reference MIC as previously determined. Total viable counts of the overnight cultures were determined by spotting 10–20 µL of decimal dilutions in 1× phosphate-buffered saline (PBS) onto non-selective agar. Assay plates were incubated for up to 48 h with colonies being enumerated every 24 h. FoR was determined by dividing the number of colonies observed by the total number of viable cells plated. Representative colonies were then picked and streaked onto selective agar to confirm resistance and obtain resistant isolates. Isolates growing on selective agar were then used to initiate overnight cultures, bacteria pelleted by centrifugation, supernatant removed, and pellets stored at −80°C for subsequent DNA extraction and whole-genome sequencing. Genomic DNA was extracted using the DNeasy Blood and Tissue Kit (Qiagen), quantified using the Quant-iT TM PicoGreen TM dsDNA Assay Kit (Thermo Fisher Scientific), and normalized to 0.2 ng/µL in nuclease-free water. […]

[17] = test system: E. coli; assay: MIC by broth microdilution (CLSI) against E. coli; format: cell-based, Escherichia coli
Method: as §1

[18] = test system: KPM (K. pneumoniae NCTC 13438) LolC and LolE mutants; assay: MIC fold change of resistant LolC/LolE mutants, KPM; format: cell-based, Klebsiella pneumoniae
Method: as §1
The FoR of bacterial strains to test compounds was determined by plating aliquots of overnight cultures onto MH-agar plates containing dilutions of the test compound at various multiples of reference MIC as previously determined. Total viable counts of the overnight cultures were determined by spotting 10–20 µL of decimal dilutions in 1× phosphate-buffered saline (PBS) onto non-selective agar. Assay plates were incubated for up to 48 h with colonies being enumerated every 24 h. FoR was determined by dividing the number of colonies observed by the total number of viable cells plated. Representative colonies were then picked and streaked onto selective agar to confirm resistance and obtain resistant isolates. Isolates growing on selective agar were then used to initiate overnight cultures, bacteria pelleted by centrifugation, supernatant removed, and pellets stored at −80°C for subsequent DNA extraction and whole-genome sequencing. Genomic DNA was extracted using the DNeasy Blood and Tissue Kit (Qiagen), quantified using the Quant-iT TM PicoGreen TM dsDNA Assay Kit (Thermo Fisher Scientific), and normalized to 0.2 ng/µL in nuclease-free water. Library preparation and barcode addition were with the Nextera XT DNA Library Prep Kit (Illumina). KAPA Pure beads (Roche) were used for DNA purification. Samples were pooled to achieve 100× coverage of each sample and run on an Illumina Nextseq 500/550 Mid Output Kit v2.5 (150 cycles) (Illumina).

[19] = Protein binding, dog; format: in vitro ADME
[20] = 100 MDR clinical isolates incl. ESBL and CRE

In the case of `Cc1cnccc1-c1[nH]c(N)nc1-c1ccc2c(c1)N(C(=O)C(C)(C)N)CCO2` [SMT-738], the nephrotoxicity [1] is reported as “No toxicity was observed”, the “Kp,kidney” value ([2]; AUC0-t,kidney/AUC0-t,plasma) is reported as 44.8 and the “Kp,lung” value ([2]; AUC0-t,lung/AUC0-t,plasma) is reported as 8.1. For the same compound, the “eliminated unchanged into the urine” value ([2]; over a 24-h period) was “approximately 29.5%”, the CL ([2]; plasma) was 59 mL/min/kg and the Vss ([2]; plasma) was 4.3 L/kg. For the same compound, the C0 ([2]; plasma, via extrapolation) was 18,386 ng/mL, the protein binding [3] was 64.4% and the mitotoxicity [4] was “No toxicity was observed”. The protein binding [5] was 66.9%, the MIC [6] was 0.12 to 2 µg/mL and the MIC [7] was 8 to 32 µg/mL. It also gave an MIC [8] of 32 µg/mL (≈ 81.5 µM), an MIC [9] of 1 µg/mL (≈ 2.55 µM) and an MIC [10] of 32 µg/mL (≈ 81.5 µM). The MIC [11] was greater than 64 µg/mL, the MIC [12] was 1 µg/mL (≈ 2.55 µM) and the “reduction of the bacterial burden below pre-treatment stasis level” value [13] was 1–2 log10. For the same compound, the MIC ([14]; first of the two respiratory isolates) was 0.25 µg/mL (≈ 0.637 µM), the MIC ([14]; second of the two respiratory isolates) was 0.5 µg/mL (≈ 1.27 µM) and the protein binding [15] was 62.7%. For the same compound, the “MIC fold change increase” value ([16]; LolC L256R mutant) was “L256R (16×)”, the “MIC fold change increase” value ([16]; LolE D264A mutant) was “D264A (128×)” and the “MIC Range E. coli (NDM)” value ([17]; 15 clinical MDR NDM isolates (NDM-1, NDM-4, NDM-5) from India (2018)) was 0.25 to 1 µg/mL. For the same compound, the “MIC50 E. coli” value [17, 20] was 0.5 µg/mL (≈ 1.27 µM), the “MIC90 E. coli” value [17, 20] was 1 µg/mL (≈ 2.55 µM) and the “MIC range E. coli” value [17, 20] was 0.12 to 4 µg/mL. For the same compound, the MIC ([17]; E. coli BAA 2469 (NDM-1 positive)) was 0.5 µg/mL (≈ 1.27 µM), the “MIC (20% HS)” value ([17]; E. coli IHMA 2015405, 20% human serum) was 0.25 µg/mL (≈ 0.637 µM) and the “MIC (50% HS)” value ([17]; E. coli IHMA 2015405, 50% human serum) was 0.25 µg/mL (≈ 0.637 µM). The “MIC (no HS)” value ([17]; E. coli IHMA 2015405, no human serum) was 0.5 µg/mL (≈ 1.27 µM), the “MIC (20% HS)” value ([17]; E. coli IHMA 2051414, 20% human serum) was 0.5 µg/mL (≈ 1.27 µM) and the “MIC (50% HS)” value ([17]; E. coli IHMA 2051414, 50% human serum) was 0.5 µg/mL (≈ 1.27 µM). The “MIC (no HS)” value ([17]; E. coli IHMA 2051414, no human serum) was 0.5 µg/mL (≈ 1.27 µM), the MIC ([17]; E. coli NCTC 13441 (UPEC, MDR, CTX-M-15 ESBL)) was 0.39 µM and 0.15 µg/mL and the MIC ([17]; E. coli UTI89) was 0.5 µg/mL (≈ 1.27 µM). For the same compound, the MICref ([17]; UPEC13441, reference MIC of the FoR experiments) was 0.3 µg/mL, the “MIC fold change increase” value ([18]; LolC E198K mutant) was “E198K (64×)” and the “MIC fold change increase” value ([18]; LolE L60P mutant) was “L60P (16×)”. The “MIC fold change increase” value ([18]; LolE M261R mutant) was “M261R (>64×)” and the protein binding [19] was 50.6%.
